Data as given in US20220218641A1 (Concert Pharmaceuticals, Inc., priority 2019, published 2022).

Experiments:
[1] = Nephrotoxicity of Compound 100 and non-deuterated D-serine at 150 mg/kg PO (Example 3); format: in vivo, male Sprague-Dawley Rats
Source text: (§1) The pharmacokinetic profile of Compound 100 was investigated in male Sprague-Dawley rats compared with that of non-deuterated D-serine. […] Plasma was collected and analyzed for Compound 100 and non-deuterated D-Serine. Additional blood was collected and analyzed for the full clinical chemistry profile.

[2] = Pharmacokinetic profile of Compound 100 vs non-deuterated D-serine, single 150 mg/kg PO dose (Example 3); format: in vivo, male Sprague-Dawley rats
Source text: as §1

[3] = Pharmacokinetics of deuterated and non-deuterated D-serine, PO 10 mg/kg (Example 5); format: in vivo, male Sprague Dawley rats
Experimental: Three rats were used for each group. Blood was collected at the following time points: for IV dosing: pre-dose, 0.05, 0.167, 0.5, 1, 2, 4, 6, 8 and 12 hours post-dose; for PO dosing: pre-dose, 0.25, 0.5, 1, 2, 4, 6, 8 and 12 hours post-dose PO. Urine was collected at pre-dose (minimum 12 hours), 0-6, 6-12 and 12-24 hours. Plasma samples were analyzed and quantified for dosed compound LC-MS/MS.

[4] = biological target: T1, human NMDAR subunits GluN1 and GluN2A (Homo sapiens, UniProt Q05586); test: Automated patch clamp (ScreenPatch) NMDA receptor activation in HEK293 cells; format: cell-based; conditions: 0.003 to 10 μM
T1 construct: expressed in transfected cells; host or cells: HEK293
Experimental: Peak current and steady state current were measured. The activity at the NMDA receptor was indistinguishable for the two compounds.

[5] = Nephrotoxicity comparison, dose escalation 150 mg/kg to 750 mg/kg PO (Example 3, FIGS. 7-10); format: in vivo, rats; conditions: for BUN / Creatinine: PO doses from 150 mg/kg to 750 mg/kg
[6] = Pharmacokinetics dose response of non-deuterated D-serine, 30-300 mg/kg PO (Example 4); format: in vivo, male Sprague-Dawley rats
Source text: (§2) The pharmacokinetic profile of non-deuterated D-serine was investigated in male Sprague-Dawley rats. […] Plasma was collected and analyzed for the non-deuterated D-serine. Additional blood was collected and analyzed for the full clinical chemistry profile.

[7] = Nephrotoxicity of non-deuterated D-serine at 300 mg/kg PO: clinical chemistry and urine (Example 2); format: in vivo, Male Sprague-Dawley Rats
Experimental: The hippocampus, cortex and plasma were collected and analyzed. Additional blood was collected and were analyzed for the full clinical chemistry profile. Urine was also collected and examined for glucose and total protein. […] The mean plasma, hippocampus, and cortex concentration at 1 hour are 19200 ng/mL, 674 ng/g, and 754 ng/g; respectively. The mean plasma, hippocampus, and cortex concentrations at 8 hours were 11250 ng/mL, 17725 ng/g, and 11875 ng/g, respectively. […] Blood urea nitrogen and creatinine levels were elevated.

[8] = Nephrotoxicity dose response of non-deuterated D-serine, 30-300 mg/kg PO (Example 4); format: in vivo, male Sprague-Dawley Rats; conditions: 24 hr samples at the 150 and 300 mg/kg doses, compared to control and reference values
Source text: as §2

[9] = dose escalation 150 mg/kg to 750 mg/kg
[10] = serum, D-serine at 24 hr, Compound 100 at 4, 8 and 24 hours

What does the source list for `[2H][C@@](N)(CO)C(=O)O` [Compound 100, (2R)-2-amino-2-deutero-3-hydroxy-propanoic acid]?
Levels of biomarkers of nephrotoxicity [1]: did not increase; Cmax and AUCinf compared with non-deuterated D-serine [2]: similar; Tmax compared with non-deuterated D-serine [3]: similar; Activity at the NMDA receptor (peak current and steady state current) [4]: indistinguishable; BUN [5]: minimal changes; Creatinine [5]: minimal changes; Exposure as measured by AUC and Cmax, compared with non-deuterated D-serine [5, 9]: greater; Gross signs of nephrotoxicity [5, 9]: not

What does the source list for `N[C@H](CO)C(=O)O` [Non-deuterated D-Serine, D-serine]?
AUCinf, multiple of the 30 mg/kg value ([6]; 75 mg/kg PO (2.5× dose)): 2.9×; Cmax, multiple of the 30 mg/kg value ([6]; 75 mg/kg PO (2.5× dose)): 2.2×; AUCinf, multiple of the 30 mg/kg value ([6]; 100 mg/kg PO (3.3× dose)): 4.9×; Cmax, multiple of the 30 mg/kg value ([6]; 100 mg/kg PO (3.3× dose)): 4.0×; AUCinf, multiple of the 30 mg/kg value ([6]; 150 mg/kg PO (5× dose)): 6.9×; Cmax, multiple of the 30 mg/kg value ([6]; 150 mg/kg PO (5× dose)): 7.4×; AUCinf, multiple of the 30 mg/kg value ([6]; 300 mg/kg PO (10× dose)): 18×; Cmax, multiple of the 30 mg/kg value ([6]; 300 mg/kg PO (10× dose)): 10.7×; Tmax ([6]; plasma, 150 mg/kg PO): 18 min; Levels of biomarkers of nephrotoxicity [1]: caused an increase; Blood urea nitrogen (BUN) level ([1]; serum, D-serine at 8 hr and 24 hr, Compound 100 at 4, 8 and 24 hours): Elevated; Creatinine level [1, 10]: Elevated; Gamma glutamyl transferase (GGT) level [1, 10]: Elevated; Blood urea nitrogen level [7]: elevated; Creatinine level [7]: elevated; Glucose in urine [7]: observed; Creatine level [8]: Elevated; Gamma glutamyl transferase (GGT) level [8]: Elevated; Urea nitrogen level [8]: Elevated; Activity at the NMDA receptor (peak current and steady state current) [4]: indistinguishable; BUN [5]: increasingly elevated levels; Creatinine [5]: increasingly elevated levels; Gross signs of nephrotoxicity [5, 9]: observed
